{"source": "patent US20250243196A1", "about": "“CITRON KINASE INHIBITORS” (The Cleveland Clinic Foundation, priority 2021, published 2025)", "test_in_all_cases": "KinaseProfiler panel", "type_in_all_cases": "biochemical", "settings_in_all_cases": "activity remaining", "key": {"Fes(h)": {"target": "Fes(h) (Homo sapiens (Human), UniProt P07332)", "parameters": "dose or concentration left out as unconfirmed"}, "CHK2(h)": {"target": "CHK2(h) (Homo sapiens (Human), UniProt O96017)", "parameters": "dose or concentration left out as unconfirmed"}, "NLK(h)": {"target": "NLK(h) (Homo sapiens (Human), UniProt Q9UBE8)"}, "PKCε(h)": {"target": "PKCε(h) (Homo sapiens (Human), UniProt Q02156)", "parameters": "dose or concentration left out as unconfirmed"}, "CDKL2(h)": {"target": "CDKL2(h) (Homo sapiens (Human), UniProt Q92772)", "parameters": "dose or concentration left out as unconfirmed"}, "JNK1α1(h)": {"target": "JNK1α1(h) (Homo sapiens (Human), UniProt P45983)", "parameters": "dose or concentration left out as unconfirmed"}, "Fer(h)": {"target": "Fer(h) (Homo sapiens (Human), UniProt P16591)", "parameters": "dose or concentration left out as unconfirmed"}, "SIK2(h)": {"target": "SIK2(h) (Homo sapiens (Human), UniProt Q9H0K1)", "sequence (Q9H0K1 whole entry)": "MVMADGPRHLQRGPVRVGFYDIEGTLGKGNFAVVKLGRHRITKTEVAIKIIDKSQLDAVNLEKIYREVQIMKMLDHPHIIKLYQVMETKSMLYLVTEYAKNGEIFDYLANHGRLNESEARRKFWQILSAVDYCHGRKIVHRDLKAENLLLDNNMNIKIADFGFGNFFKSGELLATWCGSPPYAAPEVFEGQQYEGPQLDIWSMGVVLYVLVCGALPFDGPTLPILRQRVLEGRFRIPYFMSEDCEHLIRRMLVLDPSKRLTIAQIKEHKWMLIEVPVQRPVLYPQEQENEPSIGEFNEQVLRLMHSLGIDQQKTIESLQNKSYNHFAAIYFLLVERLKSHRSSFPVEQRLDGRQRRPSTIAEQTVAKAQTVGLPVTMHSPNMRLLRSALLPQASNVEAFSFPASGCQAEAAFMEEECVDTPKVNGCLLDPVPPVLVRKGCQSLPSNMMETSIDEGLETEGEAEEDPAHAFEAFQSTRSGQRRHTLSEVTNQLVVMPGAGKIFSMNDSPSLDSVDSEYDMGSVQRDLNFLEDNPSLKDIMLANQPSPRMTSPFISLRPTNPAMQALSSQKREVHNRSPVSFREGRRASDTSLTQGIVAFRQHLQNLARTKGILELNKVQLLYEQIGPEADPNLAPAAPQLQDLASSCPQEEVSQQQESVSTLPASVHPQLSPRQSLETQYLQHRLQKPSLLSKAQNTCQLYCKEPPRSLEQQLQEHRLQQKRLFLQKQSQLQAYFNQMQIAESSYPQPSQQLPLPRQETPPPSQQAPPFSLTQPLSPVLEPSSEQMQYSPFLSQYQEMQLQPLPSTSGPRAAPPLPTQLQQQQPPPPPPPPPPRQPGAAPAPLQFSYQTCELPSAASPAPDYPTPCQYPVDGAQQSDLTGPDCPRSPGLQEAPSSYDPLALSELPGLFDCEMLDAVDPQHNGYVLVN", "parameters": "dose or concentration left out as unconfirmed"}, "MLCK(h)": {"target": "MLCK(h) (Homo sapiens (Human), UniProt Q15746)", "parameters": "dose or concentration left out as unconfirmed"}, "MAK(h)": {"target": "MAK(h) (Homo sapiens (Human), UniProt P20794)", "parameters": "dose or concentration left out as unconfirmed"}, "Axl(h)": {"target": "Axl(h) (Homo sapiens (Human), UniProt P30530)", "parameters": "dose or concentration left out as unconfirmed"}, "CK1γ2(h)": {"target": "CK1γ2(h) (Homo sapiens (Human), UniProt P78368)", "sequence (P78368 whole entry)": "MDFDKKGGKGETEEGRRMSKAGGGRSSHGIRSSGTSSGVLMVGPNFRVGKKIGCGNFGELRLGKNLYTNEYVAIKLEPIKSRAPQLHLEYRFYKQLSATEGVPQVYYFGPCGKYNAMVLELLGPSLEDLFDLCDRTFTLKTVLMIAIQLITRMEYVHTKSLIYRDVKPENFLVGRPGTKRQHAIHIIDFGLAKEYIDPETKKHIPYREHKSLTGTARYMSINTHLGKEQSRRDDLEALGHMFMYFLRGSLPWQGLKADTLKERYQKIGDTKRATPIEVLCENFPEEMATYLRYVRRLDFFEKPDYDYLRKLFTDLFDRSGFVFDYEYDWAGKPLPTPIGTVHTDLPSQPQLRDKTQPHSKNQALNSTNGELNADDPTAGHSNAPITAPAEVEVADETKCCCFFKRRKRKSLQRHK", "parameters": "dose or concentration left out as unconfirmed"}, "MST3(h)": {"target": "MST3(h) (Homo sapiens (Human), UniProt Q9Y6E0)", "parameters": "dose or concentration left out as unconfirmed"}, "GRK6(h)": {"target": "GRK6(h) (Homo sapiens (Human), UniProt P43250)", "sequence (P43250 whole entry)": "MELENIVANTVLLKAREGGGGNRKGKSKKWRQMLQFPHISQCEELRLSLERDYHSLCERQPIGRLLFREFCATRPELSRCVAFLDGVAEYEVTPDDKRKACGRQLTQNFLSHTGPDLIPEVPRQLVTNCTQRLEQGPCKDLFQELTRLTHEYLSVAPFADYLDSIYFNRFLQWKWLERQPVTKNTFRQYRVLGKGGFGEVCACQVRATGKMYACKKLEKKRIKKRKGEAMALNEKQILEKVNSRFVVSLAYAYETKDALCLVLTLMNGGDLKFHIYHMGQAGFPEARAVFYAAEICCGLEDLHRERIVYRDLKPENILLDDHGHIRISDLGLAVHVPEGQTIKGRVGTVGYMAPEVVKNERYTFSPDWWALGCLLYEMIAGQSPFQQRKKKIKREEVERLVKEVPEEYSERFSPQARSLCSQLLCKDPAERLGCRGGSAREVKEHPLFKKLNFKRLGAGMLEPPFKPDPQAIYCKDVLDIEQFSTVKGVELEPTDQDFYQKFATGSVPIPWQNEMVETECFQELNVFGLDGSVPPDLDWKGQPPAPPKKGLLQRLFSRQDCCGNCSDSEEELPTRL", "parameters": "dose or concentration left out as unconfirmed"}, "Aurora-B(h)": {"target": "Aurora-B(h) (Homo sapiens (Human), UniProt Q96GD4)", "parameters": "dose or concentration left out as unconfirmed"}, "DAPK2(h)": {"target": "DAPK2(h) (Homo sapiens (Human), UniProt Q9UIK4)"}, "AMPKα2(h)": {"target": "AMPKα2(h) (Homo sapiens (Human), UniProt P54646)", "parameters": "dose or concentration left out as unconfirmed"}, "Fyn(h)": {"target": "Fyn(h) (Homo sapiens (Human), UniProt P06241)", "parameters": "dose or concentration left out as unconfirmed"}, "MSSK1(h)": {"target": "MSSK1(h) (Homo sapiens (Human), UniProt Q9UPE1)"}, "PRP4(h)": {"target": "PRP4(h) (Homo sapiens (Human), UniProt Q13523)", "parameters": "dose or concentration left out as unconfirmed"}, "Wee1(h)": {"target": "Wee1(h) (Homo sapiens (Human), UniProt P30291)", "parameters": "dose or concentration left out as unconfirmed"}, "HIPK3(h)": {"target": "HIPK3(h) (Homo sapiens (Human), UniProt Q9H422)", "sequence (Q9H422 whole entry)": "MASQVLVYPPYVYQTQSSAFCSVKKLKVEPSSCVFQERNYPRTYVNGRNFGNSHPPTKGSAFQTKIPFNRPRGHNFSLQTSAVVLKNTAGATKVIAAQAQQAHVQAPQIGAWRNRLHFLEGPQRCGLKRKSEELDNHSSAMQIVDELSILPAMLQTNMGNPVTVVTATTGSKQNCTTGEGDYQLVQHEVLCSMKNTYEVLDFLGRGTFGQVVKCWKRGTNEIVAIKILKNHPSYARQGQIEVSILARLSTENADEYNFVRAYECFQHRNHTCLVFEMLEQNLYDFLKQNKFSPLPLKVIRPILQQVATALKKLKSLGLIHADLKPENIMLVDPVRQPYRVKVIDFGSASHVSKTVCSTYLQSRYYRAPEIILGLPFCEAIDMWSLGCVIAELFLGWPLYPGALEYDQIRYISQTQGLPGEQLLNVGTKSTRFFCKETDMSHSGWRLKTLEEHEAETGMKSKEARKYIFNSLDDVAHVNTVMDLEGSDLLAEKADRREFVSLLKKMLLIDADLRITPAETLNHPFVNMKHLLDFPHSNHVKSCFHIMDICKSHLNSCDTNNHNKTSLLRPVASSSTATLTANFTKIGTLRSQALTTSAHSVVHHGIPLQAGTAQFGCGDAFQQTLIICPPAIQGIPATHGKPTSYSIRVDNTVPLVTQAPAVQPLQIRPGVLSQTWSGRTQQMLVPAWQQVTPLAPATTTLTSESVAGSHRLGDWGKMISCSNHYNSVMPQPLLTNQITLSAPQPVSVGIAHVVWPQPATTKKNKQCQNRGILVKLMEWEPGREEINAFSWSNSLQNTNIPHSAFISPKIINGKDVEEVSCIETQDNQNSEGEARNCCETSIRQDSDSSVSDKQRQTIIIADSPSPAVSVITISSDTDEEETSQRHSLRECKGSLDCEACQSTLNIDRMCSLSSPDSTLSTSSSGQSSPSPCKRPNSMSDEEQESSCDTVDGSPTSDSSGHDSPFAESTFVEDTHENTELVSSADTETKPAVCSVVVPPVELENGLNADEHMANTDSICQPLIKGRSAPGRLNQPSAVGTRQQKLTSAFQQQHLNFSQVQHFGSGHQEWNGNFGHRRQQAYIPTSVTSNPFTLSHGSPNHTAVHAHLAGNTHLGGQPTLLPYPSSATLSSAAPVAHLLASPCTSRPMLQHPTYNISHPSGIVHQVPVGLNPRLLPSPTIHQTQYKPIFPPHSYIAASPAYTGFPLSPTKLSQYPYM", "parameters": "dose or concentration left out as unconfirmed"}, "TTBK2(h)": {"target": "TTBK2(h) (Homo sapiens (Human), UniProt Q6IQ55)", "parameters": "dose or concentration left out as unconfirmed"}, "Ron(h)": {"target": "Ron(h) (Homo sapiens (Human), UniProt Q04912)", "sequence (Q04912 25-1400)": "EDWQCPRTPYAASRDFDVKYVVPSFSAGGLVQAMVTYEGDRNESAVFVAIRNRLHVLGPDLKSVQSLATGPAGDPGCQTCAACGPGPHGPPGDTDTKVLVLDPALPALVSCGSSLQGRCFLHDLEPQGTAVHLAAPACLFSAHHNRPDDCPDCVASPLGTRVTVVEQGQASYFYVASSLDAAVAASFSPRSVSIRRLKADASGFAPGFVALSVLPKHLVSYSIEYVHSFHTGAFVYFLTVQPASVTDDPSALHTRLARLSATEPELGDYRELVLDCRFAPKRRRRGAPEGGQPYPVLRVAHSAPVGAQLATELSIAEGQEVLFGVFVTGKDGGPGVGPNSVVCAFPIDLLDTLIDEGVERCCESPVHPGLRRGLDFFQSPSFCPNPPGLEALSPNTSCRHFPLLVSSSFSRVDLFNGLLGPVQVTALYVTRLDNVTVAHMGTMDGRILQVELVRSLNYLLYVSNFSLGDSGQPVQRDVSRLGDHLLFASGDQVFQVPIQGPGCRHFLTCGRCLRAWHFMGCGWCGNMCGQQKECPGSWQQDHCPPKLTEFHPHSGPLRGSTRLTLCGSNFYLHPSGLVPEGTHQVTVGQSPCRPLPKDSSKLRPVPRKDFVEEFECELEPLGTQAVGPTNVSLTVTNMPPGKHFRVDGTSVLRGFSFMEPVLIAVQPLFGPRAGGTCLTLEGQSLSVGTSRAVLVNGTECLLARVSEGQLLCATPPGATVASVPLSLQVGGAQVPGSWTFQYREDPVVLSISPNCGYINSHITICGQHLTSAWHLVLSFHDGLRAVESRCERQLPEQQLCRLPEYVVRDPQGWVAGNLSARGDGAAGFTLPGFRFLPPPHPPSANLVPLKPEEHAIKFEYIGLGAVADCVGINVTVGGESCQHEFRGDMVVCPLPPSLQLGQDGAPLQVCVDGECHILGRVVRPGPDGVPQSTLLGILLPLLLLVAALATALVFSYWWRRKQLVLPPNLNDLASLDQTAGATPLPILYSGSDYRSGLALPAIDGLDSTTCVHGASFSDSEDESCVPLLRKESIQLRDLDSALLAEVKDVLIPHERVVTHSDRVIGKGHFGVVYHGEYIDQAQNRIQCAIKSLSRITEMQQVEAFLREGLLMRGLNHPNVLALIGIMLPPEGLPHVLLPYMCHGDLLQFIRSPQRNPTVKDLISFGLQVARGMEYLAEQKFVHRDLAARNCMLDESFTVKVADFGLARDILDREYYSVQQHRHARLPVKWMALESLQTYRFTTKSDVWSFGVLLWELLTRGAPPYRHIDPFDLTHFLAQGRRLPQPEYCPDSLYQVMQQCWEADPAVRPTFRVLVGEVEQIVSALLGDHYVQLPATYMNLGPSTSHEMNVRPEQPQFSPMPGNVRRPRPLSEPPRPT", "parameters": "dose or concentration left out as unconfirmed"}, "MSK2(h)": {"target": "MSK2(h) (Homo sapiens (Human), UniProt O75676)", "parameters": "dose or concentration left out as unconfirmed"}, "MRCKα(h)": {"target": "MRCKα(h) (Homo sapiens (Human), UniProt Q5VT25)", "parameters": "dose or concentration left out as unconfirmed"}, "JAK3(h)": {"target": "JAK3(h) (Homo sapiens (Human), UniProt P52333)", "parameters": "dose or concentration left out as unconfirmed"}, "PKBβ(h)": {"target": "PKBβ(h) (Homo sapiens (Human), UniProt P31751)", "parameters": "dose or concentration left out as unconfirmed"}, "DYRK1A(h)": {"target": "DYRK1A(h) (Homo sapiens (Human), UniProt Q13627)", "parameters": "dose or concentration left out as unconfirmed"}, "TSSK1(h)": {"target": "TSSK1(h) (Homo sapiens (Human), UniProt Q9BXA7)", "parameters": "dose or concentration left out as unconfirmed"}, "CaMKK2(h)": {"target": "CaMKK2(h) (Homo sapiens (Human), UniProt Q96RR4)", "sequence (Q96RR4 whole entry)": "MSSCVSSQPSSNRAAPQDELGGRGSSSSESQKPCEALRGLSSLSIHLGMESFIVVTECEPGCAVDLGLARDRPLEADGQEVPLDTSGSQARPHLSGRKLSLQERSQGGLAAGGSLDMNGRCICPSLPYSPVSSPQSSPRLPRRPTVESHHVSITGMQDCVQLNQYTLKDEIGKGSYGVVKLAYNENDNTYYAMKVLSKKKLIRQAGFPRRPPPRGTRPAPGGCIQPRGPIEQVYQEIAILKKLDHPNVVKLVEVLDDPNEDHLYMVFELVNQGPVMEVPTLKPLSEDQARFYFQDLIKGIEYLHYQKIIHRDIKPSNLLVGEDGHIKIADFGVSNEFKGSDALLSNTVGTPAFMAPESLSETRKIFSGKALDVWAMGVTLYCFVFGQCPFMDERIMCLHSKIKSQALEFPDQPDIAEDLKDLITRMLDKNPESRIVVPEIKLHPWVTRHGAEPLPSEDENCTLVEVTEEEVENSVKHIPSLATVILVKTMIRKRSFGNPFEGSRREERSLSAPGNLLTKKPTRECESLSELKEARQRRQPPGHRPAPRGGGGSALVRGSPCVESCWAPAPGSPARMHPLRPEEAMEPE", "parameters": "dose or concentration left out as unconfirmed"}, "Yes(h)": {"target": "Yes(h) (Homo sapiens (Human), UniProt P07947)", "parameters": "dose or concentration left out as unconfirmed"}, "CDK16/cyclinY(h)": {"target": "CDK16/cyclinY(h) (Homo sapiens (Human), UniProt Q00536)", "parameters": "dose or concentration left out as unconfirmed"}}}
{"smiles": "Cc1cc2c(-c3ccc(NC(=O)[C@H](N)CC(C)(C)C)cc3C)ccnc2[nH]1", "note": "[Compound F-90, (2R)-2-Amino-4,4-dimethyl-N-[3-methyl-4-(2-methyl-1H-pyrrolo[2,3-b]pyridin-4-yl)phenyl]pentanamide]", "values": [{"measurement": "% Activity", "setting": "Fes(h)", "result": 111, "unit": "%"}, {"measurement": "% Activity", "setting": "CHK2(h)", "result": 95, "unit": "%"}, {"measurement": "% Activity", "setting": "NLK(h)", "result": 98, "unit": "%"}, {"measurement": "% Activity", "setting": "PKCε(h)", "result": 97, "unit": "%"}, {"measurement": "% Activity", "setting": "CDKL2(h)", "result": 80, "unit": "%"}, {"measurement": "% Activity", "setting": "JNK1α1(h)", "result": 110, "unit": "%"}, {"measurement": "% Activity", "setting": "Fer(h)", "result": 103, "unit": "%"}, {"measurement": "% Activity", "setting": "SIK2(h)", "result": 109, "unit": "%"}, {"measurement": "% Activity", "setting": "MLCK(h)", "result": 98, "unit": "%"}, {"measurement": "% Activity", "setting": "MAK(h)", "result": 120, "unit": "%"}, {"measurement": "% Activity", "setting": "Axl(h)", "result": 91, "unit": "%"}, {"measurement": "% Activity", "setting": "CK1γ2(h)", "result": 97, "unit": "%"}, {"measurement": "% Activity", "setting": "MST3(h)", "result": 85, "unit": "%"}, {"measurement": "% Activity", "setting": "GRK6(h)", "result": 95, "unit": "%"}, {"measurement": "% Activity", "setting": "Aurora-B(h)", "result": 109, "unit": "%"}, {"measurement": "% Activity", "setting": "DAPK2(h)", "result": 109, "unit": "%"}, {"measurement": "% Activity", "setting": "AMPKα2(h)", "result": 117, "unit": "%"}, {"measurement": "% Activity", "setting": "Fyn(h)", "result": 100, "unit": "%"}, {"measurement": "% Activity", "setting": "MSSK1(h)", "result": 134, "unit": "%"}, {"measurement": "% Activity", "setting": "PRP4(h)", "result": 100, "unit": "%"}, {"measurement": "% Activity", "setting": "Wee1(h)", "result": 94, "unit": "%"}, {"measurement": "% Activity", "setting": "HIPK3(h)", "result": 85, "unit": "%"}, {"measurement": "% Activity", "setting": "TTBK2(h)", "result": 94, "unit": "%"}, {"measurement": "% Activity", "setting": "Ron(h)", "result": 111, "unit": "%"}, {"measurement": "% Activity", "setting": "MSK2(h)", "result": 88, "unit": "%"}, {"measurement": "% Activity", "setting": "MRCKα(h)", "result": 94, "unit": "%"}, {"measurement": "% Activity", "setting": "JAK3(h)", "result": 106, "unit": "%"}, {"measurement": "% Activity", "setting": "PKBβ(h)", "result": 109, "unit": "%"}, {"measurement": "% Activity", "setting": "DYRK1A(h)", "result": 112, "unit": "%"}, {"measurement": "% Activity", "setting": "TSSK1(h)", "result": 116, "unit": "%"}, {"measurement": "% Activity", "setting": "CaMKK2(h)", "result": 96, "unit": "%"}, {"measurement": "% Activity", "setting": "Yes(h)", "result": 87, "unit": "%"}, {"measurement": "% Activity", "setting": "CDK16/cyclinY(h)", "result": 98, "unit": "%"}]}
